Measured values published in patent publication US8178548B2, “Anti-infective agents and uses thereof” (priority 2007, dated 2012).
Like-named read-outs stand apart in the source and are kept apart here.

Assays:
[1] = target: T1, HCV polymerase 1B (Δ21 NS5B, HCV Strain 1B BK) (Hepatitis C virus genotype 1b, UniProt P26663); assay: biochemical
T1 construct: 20 to 50 nM Δ21 NS5B
Method in brief: (§1)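 Δ21 NS5B (20–50 nM) was preincubated with inhibitor, 60–125 μM GTP and 2 mM MnCl2 (pH 7.4) for 15 min at RT. RNA synthesis on 5 nM template with 20 μM CTP/ATP and 1 μM ³H-UTP ran 2–4 h at RT. Spermine-precipitated RNA was filter-counted, and IC50 was fit with a tight-binding equation.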

[2] = target: T2, HCV polymerase 1A (Δ21 NS5B, H77) (Hepatitis C virus genotype 1a, UniProt P27958); assay: biochemical
T2 construct: 20 to 50 nM Δ21 NS5B
T2 sequence (P27958 2421-2990, stated change not applied): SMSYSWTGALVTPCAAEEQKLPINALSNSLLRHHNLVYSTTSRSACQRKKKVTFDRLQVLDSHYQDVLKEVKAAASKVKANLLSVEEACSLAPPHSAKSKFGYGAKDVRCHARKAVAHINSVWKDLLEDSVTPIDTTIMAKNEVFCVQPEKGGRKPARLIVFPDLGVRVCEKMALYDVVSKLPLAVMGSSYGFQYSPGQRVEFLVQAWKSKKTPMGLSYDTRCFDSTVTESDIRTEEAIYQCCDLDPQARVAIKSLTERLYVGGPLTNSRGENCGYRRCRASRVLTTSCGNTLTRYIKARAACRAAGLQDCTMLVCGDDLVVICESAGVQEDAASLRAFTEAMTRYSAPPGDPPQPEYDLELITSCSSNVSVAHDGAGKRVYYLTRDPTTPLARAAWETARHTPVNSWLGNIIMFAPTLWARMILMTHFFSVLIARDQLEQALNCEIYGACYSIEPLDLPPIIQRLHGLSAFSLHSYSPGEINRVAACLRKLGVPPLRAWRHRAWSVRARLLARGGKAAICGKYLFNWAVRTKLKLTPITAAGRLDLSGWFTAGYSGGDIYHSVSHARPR
Method in brief: as §1

[3] = tested on: genotype 1b-Con1 subgenomic replicon cell line; assay: HCV Polymerase Replicon Assay, genotype 1b-Con1 (luciferase reporter); assay type: cell-based; settings: Hepatitis C virus, 72 h, read-out: EC50 1b
[4] = tested on: genotype 1a-H77 subgenomic replicon cell line; assay: HCV Polymerase Replicon Assay, genotype 1a-H77 (luciferase reporter); assay type: cell-based; settings: Hepatitis C virus, 72 h, read-out: EC50 1a
[5] = replicon 1b-Con1, luciferase, three days
[6] = replicon 1a-H77, luciferase, three days

T1 sequence (P26663 2420-2989, stated change not applied): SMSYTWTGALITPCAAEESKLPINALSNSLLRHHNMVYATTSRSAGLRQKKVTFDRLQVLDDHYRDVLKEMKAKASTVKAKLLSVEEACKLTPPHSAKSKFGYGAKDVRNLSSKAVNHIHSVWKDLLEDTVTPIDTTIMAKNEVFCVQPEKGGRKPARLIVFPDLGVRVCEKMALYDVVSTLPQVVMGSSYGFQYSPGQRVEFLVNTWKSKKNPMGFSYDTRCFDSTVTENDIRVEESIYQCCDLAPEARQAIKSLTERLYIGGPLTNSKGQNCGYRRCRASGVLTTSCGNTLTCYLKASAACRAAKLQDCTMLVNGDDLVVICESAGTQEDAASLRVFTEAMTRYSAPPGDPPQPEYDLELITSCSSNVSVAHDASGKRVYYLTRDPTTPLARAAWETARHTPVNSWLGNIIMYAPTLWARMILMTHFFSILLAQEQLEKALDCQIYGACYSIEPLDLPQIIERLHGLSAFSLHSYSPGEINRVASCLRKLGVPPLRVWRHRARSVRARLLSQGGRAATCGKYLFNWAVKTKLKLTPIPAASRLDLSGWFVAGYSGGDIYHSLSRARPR

Structure (SMILES)	IC50 [1]	IC50 [2]	EC50 [3]	EC50 [4]	EC50 [3, 5]	EC50 [4, 6]
COc1c(/C=C/c2ccc(NS(C)(=O)=O)cc2C(=O)N2CCCC2)cc(-n2ccc(=O)[nH]c2=O)cc1C(C)(C)C [IB-L1-1.27, N-[4-{(E)-2-[3-tert-butyl-5-(2,4-dioxo-3,4-dihydro-2H-pyrimidin-1-yl)-2-methoxy-phenyl]-vinyl}-3-(pyrrolidine-1-carbonyl)-phenyl]-methanesulfonamide]	10 to 100 nM	10 to 100 nM	< 10 nM	10 to 100 nM		
COc1c(/C=C/c2ccc(NS(C)(=O)=O)cc2N)cc(-n2ccc(=O)[nH]c2=O)cc1C(C)(C)C [IB-L1-1.28, (E)-N-(3-amino-4-(3-tert-butyl-5-(2,4-dioxo-3,4-dihydropyrimidin-1(2H)-yl)-2-methoxystyryl)phenyl)methanesulfonamide]	10 to 100 nM	10 to 100 nM	< 10 nM	< 10 nM		
COc1c(/C=C/c2ccc(NS(C)(=O)=O)cc2CN2CC(O)C2)cc(-n2ccc(=O)[nH]c2=O)cc1C(C)(C)C [IB-L1-1.29, N-[4-{(E)-2-[3-tert-butyl-5-(2,4-dioxo-3,4-dihydro-2H-pyrimidin-1-yl)-2-methoxy-phenyl]-vinyl}-3-(3-hydroxy-azetidin-1-ylmethyl)-phenyl]-methanesulfonamide]	10 to 100 nM	10 to 100 nM	100 to 1000 nM	100 to 1000 nM		
CCOc1c(/C=C/c2ccc(NS(C)(=O)=O)cc2)cc(-n2ccc(=O)[nH]c2=O)cc1C(C)(C)C [IB-L1-1.30, (E)-N-(4-(3-tert-butyl-5-(2,4-dioxo-3,4-dihydropyrimidin-1(2H)-yl)-2-ethoxystyryl)phenyl)methanesulfonamide]	10 to 100 nM	10 to 100 nM			10 to 100 nM	100 to 1000 nM
COc1c(/C=C/c2ccc(NS(C)(=O)=O)cc2CNCCC(C)C)cc(-n2ccc(=O)[nH]c2=O)cc1C(C)(C)C [IB-L1-1.31, (E)-N-(4-(3-tert-butyl-5-(2,4-dioxo-3,4-dihydropyrimidin-1(2H)-yl)-2-methoxystyryl)-3-((isopentylamino)methyl)phenyl)methanesulfonamide]	100 to 1000 nM	10 to 100 nM	> 1000 nM	> 1000 nM		
COc1c(/C=C/c2ccc(NS(C)(=O)=O)cc2NC(=O)OC(C)(C)C)cc(-n2ccc(=O)[nH]c2=O)cc1C(C)(C)C [IB-L1-1.32, (E)-tert-butyl 2-(3-tert-butyl-5-(2,4-dioxo-3,4-dihydropyrimidin-1(2H)-yl)-2-methoxystyryl)-5-(methylsulfonamido)phenylcarbamate]	100 to 1000 nM	100 to 1000 nM	10 to 100 nM	100 to 1000 nM		
COc1c(/C=C/c2ccc(NS(C)(=O)=O)cc2CN2CCCC2)cc(-n2ccc(=O)[nH]c2=O)cc1C(C)(C)C [IB-L1-1.33, N-(4-{(E)-2-[3-tert-Butyl-5-(2,4-dioxo-3,4-dihydro-2H-pyrimidin-1-yl)-2-methoxy-phenyl]-vinyl}-3-pyrrolidin-1-ylmethyl-phenyl)-methanesulfonamide]	100 to 1000 nM	100 to 1000 nM	10 to 100 nM	100 to 1000 nM		
COc1c(/C=C\c2ccc(NS(C)(=O)=O)cc2)cc(-n2ccc(=O)[nH]c2=O)cc1C(C)(C)C [IB-L1-1.34, N-(4-{(Z)-2-[3-tert-Butyl-5-(2,4-dioxo-3,4-dihydro-2H-pyrimidin-1-yl)-2-methoxy-phenyl]-vinyl}-phenyl)-methanesulfonamide]	> 1000 nM	> 1000 nM	< 10 nM	10 to 100 nM		
COc1c(/C=C/c2ccc(NS(C)(=O)=O)cc2)cc(-n2ccc(=O)[nH]c2=O)cc1C(C)(C)CO [IB-L1-1.45, (E)-N-(4-(5-(2,4-dioxo-3,4-dihydropyrimidin-1(2H)-yl)-3-(1-hydroxy-2-methylpropan-2-yl)-2-methoxystyryl)phenyl)methanesulfonamide]	10 to 100 nM	< 10 nM			< 10 nM	10 to 100 nM
